As usually defined, the IC50 is the concentration that gives 50% inhibition.

For the assay, the target named is T1, menin (Homo sapiens, UniProt O00255, T541A).
T1 construct: Menin (a.a. 1-610-6×his tag)
T1 sequence (O00255 with tags, fused parts or gaps T541A): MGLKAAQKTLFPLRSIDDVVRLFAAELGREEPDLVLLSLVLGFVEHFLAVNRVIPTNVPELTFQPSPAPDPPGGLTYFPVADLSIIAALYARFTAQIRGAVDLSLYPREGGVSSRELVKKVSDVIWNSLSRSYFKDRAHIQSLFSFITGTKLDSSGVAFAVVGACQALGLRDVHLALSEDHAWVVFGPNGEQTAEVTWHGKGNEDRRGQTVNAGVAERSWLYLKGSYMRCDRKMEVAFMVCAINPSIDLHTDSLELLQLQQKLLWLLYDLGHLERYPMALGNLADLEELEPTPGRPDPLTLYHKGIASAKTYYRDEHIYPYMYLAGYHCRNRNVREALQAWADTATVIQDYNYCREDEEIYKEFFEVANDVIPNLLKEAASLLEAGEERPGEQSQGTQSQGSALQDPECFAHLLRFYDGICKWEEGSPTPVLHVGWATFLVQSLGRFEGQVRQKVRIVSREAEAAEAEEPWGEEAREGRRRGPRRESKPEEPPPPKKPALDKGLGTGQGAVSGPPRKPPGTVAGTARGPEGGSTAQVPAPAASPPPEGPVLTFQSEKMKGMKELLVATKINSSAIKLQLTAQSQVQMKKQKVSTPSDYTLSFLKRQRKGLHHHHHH
The assay is described as follows: Menin/MLL homogenous time-resolved fluorescence (HTRF) assay. Format: binding. On the procedure:
2) Menin/MLL Homogenous Time-Resolved Fluorescence (HTRF) Assay
To an untreated, white 384-well microtiter plate was added 40 nL 200× test compound in DMSO and 4 μL 2× terbium chelate-labeled menin (vide infra for preparation) in assay buffer (40 mM Tris HCl, pH 7.5, 50 mM NaCl, 1 mM DTT and 0.05% Pluronic F-127). After incubation of test compound and terbium chelate-labeled menin for 5 min at ambient temperature, 4 μL 2× FITC-MBM1 peptide (FITC-β-alanine-[…]-NH2 (SEQ ID NO: 23)) in assay buffer was added, the microtiter plate centrifuged at 1000 rpm for 1 min and the assay mixtures incubated for 15 min at ambient temperature. The relative amount of menin.FITC-MBM1 complex present in an assay mixture is determined by measuring the homogenous time-resolved fluorescence (HTRF) of the terbium/FITC donor/acceptor fluorphore pair using a BMG Pherastar plate reader (ex. 337 nm/terbium em. 490 nm/FITC em. 520 nm) at ambient temperature. The degree of fluorescence resonance energy transfer (the HTRF value) is expressed as the ratio of the fluorescence emission intensities of the FITC and terbium fluorophores (Fern 520 nm/Fem 490 nm). The final concentrations of reagents in the binding assay are […] terbium chelate-labeled menin (location 2), 75 nM FITC-MBM1 peptide and 0.5% DMSO in assay buffer. Dose-response titrations of test compounds are conducted using an 11 point, three-fold serial dilution scheme, starting typically at 25 μM (location 1) or starting typically at 10 μM (location 2).
Compound potencies were determined by first calculating % inhibition at each compound concentration according to equation 1: % inhibition=((HC−LC)−(HTRF^compound−LC))/(HC−LC))*100 (Eqn 1)
Where LC and HC are the HTRF values of the assay in the presence or absence of a saturating concentration of a compound that competes with FITC-MBM1 for binding to menin, and HTRF^compound is the measured HTRF value in the presence of the test compound. FTC and LC HTRF values represent an average of at least 16 replicates per plate.
Where Bottom and Top are the lower and upper asymptotes of the dose-response curve, respectively, IC50 is the concentration of compound that yields 50% inhibition of signal and h is the Hill coefficient.
Preparation of Terbium cryptate labeling of Menin: Menin (a.a. 1-610-6×his tag (“6×his” disclosed as SEQ ID NO: 3)) was labeled with terbium cryptate as follows. 2 mg of Menin was buffer exchanged into 1× phosphate buffered saline. 16 uM Menin was incubated with 4-fold molar excess NHS-terbium cryptate (Cisbio Bioassays, Bedford, Mass.) for 2 hours at room temperature. The labeled protein was purified away from free label by running the reaction over a Superdex 200 Increase 10/300 GL column at 0.75 ml/min. Peak fractions were collected, aliquoted and frozen at −80° C.
In general terms: TR-FRET usually uses a lanthanide donor and a delayed reading to cut background.

The mark [1] stands for this setting: location 1, read-out: (2) location 1 Menin HTRF assay (IC50 (nM)).
The mark [2] stands for this setting: location 2, read-out: (2) location 2 Menin HTRF assay (IC50 (nM)).

Where two headings read alike, the source gives them in different places.

`N#CCc1ccc(C(=O)NC2CC3(CCN(c4ncnc5sc(CC(F)(F)F)cc45)C3)C2)cc1` (mixture of isomers) [Compound 10]: the IC50 by setting is: under setting [1], 843 nM; under setting [2], 948 nM. With `CC(C)CN(C(=O)CCN1CCOCC1)C1CC2(CCN(c3ncnc4sc(CC(F)(F)F)cc34)C2)C1` (mixture of isomers) [Compound 52], the IC50 under setting [1] came out at 555 nM. Turning to `Fc1ccccc1NC1CC2(CCN(c3ncnc4sc(CC(F)(F)F)cc34)C2)C1` (mixture of isomers) [Compound 156], the 50% inhibitory concentration (IC50) under setting [2] was 155 nM. Same read-out and setting: under `Fc1cccc(NC2CC3(CCN(c4ncnc5sc(CC(F)(F)F)cc45)C3)C2)c1` (mixture of isomers) [Compound 157] stands 118 nM. For `FC(F)(F)Cc1cc2c(N3CCC4(CC(Nc5ccccc5Cl)C4)C3)ncnc2s1` (mixture of isomers) [Compound 159], the IC50 under setting [2] amounted to 199 nM. On the same count and under the same terms, to `FC(F)(F)Cc1cc2c(N3CCC4(CC(Nc5cccc(Cl)c5)C4)C3)ncnc2s1` (mixture of isomers) [Compound 160] belongs 150 nM; to `FC(F)(F)Cc1cc2c(N3CCC4(CC(Nc5ccc(Cl)cc5)C4)C3)ncnc2s1` (mixture of isomers) [Compound 161], 101 nM; to `Cc1ccccc1NC1CC2(CCN(c3ncnc4sc(CC(F)(F)F)cc34)C2)C1` (mixture of isomers) [Compound 165], 656 nM. In the case of `Cc1cccc(NC2CC3(CCN(c4ncnc5sc(CC(F)(F)F)cc45)C3)C2)c1` (mixture of isomers) [Compound 166], the IC50 under setting [2] was 400 nM. Same read-out and setting: to `Cc1ccc(NC2CC3(CCN(c4ncnc5sc(CC(F)(F)F)cc45)C3)C2)cc1` (mixture of isomers) [Compound 167] belongs 98.1 nM. On the same count and under the same terms, to `N#CCc1cccc(NC2CC3(CCN(c4ncnc5sc(CC(F)(F)F)cc45)C3)C2)c1` (mixture of isomers) [Compound 173] belongs 127 nM.

Turning to `CN(CC1CC2(CCN(c3ncnc4sc(CC(F)(F)F)cc34)C2)C1)c1cnn(C)c1` (mixture of isomers) [Compound 197], the IC50 under setting [2] worked out at 2350 nM.

For `Cn1ncc2ccc(NC3CC4(CCN(c5ncnc6sc(CC(F)(F)F)cc56)C4)C3)cc21` (mixture of isomers) [Compound 206], the concentration for half-maximal inhibition (IC50) under setting [2] is 224 nM. As for `Cn1cnc2ccc(NC3CC4(CCN(c5ncnc6sc(CC(F)(F)F)cc56)C4)C3)cc21` (mixture of isomers) [Compound 207], under setting [2], the IC50 is 210 nM. In the case of `Cc1noc2cc(NC3CC4(CCN(c5ncnc6sc(CC(F)(F)F)cc56)C4)C3)ccc12` (mixture of isomers) [Compound 215], under setting [2], the IC50 worked out at 62 nM. `CNc1nc(N2CCC3(CC(Nc4ccc5oc(=O)n(CCN6CCN(S(C)(=O)=O)CC6)c5c4)C3)C2)c2cc(CC(F)(F)F)sc2n1` (mixture of isomers) [Compound 248]: the IC50 under setting [2] is 348 nM. Still for that read-out and setting: to `CS(=O)(=O)N1CCN(CCn2c(=O)oc3cc(NC4CC5(CCN(c6ncnc7sc(CC(F)(F)F)cc67)C5)C4)ccc32)CC1` (mixture of isomers) [Compound 249] belongs 272 nM; to `CN(C(=O)c1ccccc1)C1CC2(CCN(c3ncnc4sc(CC(F)(F)F)cc34)C2)C1` (mixture of isomers) [Compound 260], more than 10000 nM. Regarding `CS(=O)(=O)N1CCN(CCn2c(=O)oc3ccc(NC4CC5(CCN(c6ncnc7sc(CC(F)(F)F)cc67)C5)C4)cc32)CC1` (mixture of isomers) [Compound 270], the half-inhibitory concentration (IC50) under setting [2] is 518 nM. On the same count and under the same terms, to `O=c1ccc(NC2CC3(CCN(c4ncnc5sc(CC(F)(F)F)cc45)C3)C2)c[nH]1` (mixture of isomers) [Compound 305] belongs 148 nM; to `FC(F)(F)Cc1cc2c(N3CCC4(CC(Nc5cn[nH]c5)C4)C3)ncnc2s1` (mixture of isomers) [Compound 309], 339 nM; to `Cn1cc(NC2CC3(CCN(c4ncnc5sc(CC(F)(F)F)cc45)C3)C2)cn1` (mixture of isomers) [Compound 310], more than 10000 nM. Still for that read-out and setting: to `Cn1c(=O)[nH]c2ccc(NC3CC4(CCN(c5ncnc6sc(CC(F)(F)F)cc56)C4)C3)cc21` (mixture of isomers) [Compound 325] belongs 1690 nM. `CN1CCN(C(=O)c2ccc(NC3CC4(CCN(c5ncnc6sc(CC(F)(F)F)cc56)C4)C3)cc2)CC1` (mixture of isomers) [Compound 336]: the IC50 under setting [2] worked out at 297 nM. With `N#Cc1cccc(S(=O)(=O)NC2CC3(CCN(c4ncnc5sc(CC(F)(F)F)cc45)C3)C2)c1` (mixture of isomers) [Compound 415], under setting [2], the IC50 is 473 nM. Same read-out and setting: to `O=S(=O)(NC1CC2(CCN(c3ncnc4sc(CC(F)(F)F)cc34)C2)C1)c1cccc(C(F)(F)F)c1` (mixture of isomers) [Compound 416] belongs 433 nM; to `O=S(=O)(NC1CC2(CCN(c3ncnc4sc(CC(F)(F)F)cc34)C2)C1)c1ccc(C(F)(F)F)cc1` (mixture of isomers) [Compound 417], 221 nM. Consider `O=c1cc(NC2CC3(CCN(c4ncnc5sc(CC(F)(F)F)cc45)C3)C2)cc[nH]1` (mixture of isomers) [Compound 424], for which, under setting [2], the IC50 is 576 nM. As to `CN(C1CC2(CCN(c3ncnc4sc(CC(F)(F)F)cc34)C2)C1)S(=O)(=O)c1cccc(C#N)c1` (mixture of isomers) [Compound 425], the IC50 under setting [2] amounted to 234 nM.

Regarding `CN(C1CC2(CCN(c3ncnc4sc(CC(F)(F)F)cc34)C2)C1)S(=O)(=O)c1cccc(C(F)(F)F)c1` (mixture of isomers) [Compound 426], under setting [2], the IC50 turned out to be 536 nM. `CN(C1CC2(CCN(c3ncnc4sc(CC(F)(F)F)cc34)C2)C1)S(=O)(=O)c1ccc(C(F)(F)F)cc1` (mixture of isomers) [Compound 427]: under setting [2], the IC50 is more than 10000 nM. Take `FC(F)(F)Cc1cc2c(N3CC4(CCC(Nc5cn[nH]c5)C4)C3)ncnc2s1` (racemic) [Compound 277]: under setting [2], the IC50 was 949 nM. In the case of `Cc1nc(N2CC3(CCC(Nc4ccc(CC#N)cc4)C3)C2)c2cc(CC(F)(F)F)sc2n1` (racemic) [Compound 403], the IC50 under setting [2] was 553 nM. Consider `FC(F)(F)Cc1cc2c(N3CCC4(CCC(NCc5ccccc5)C4)C3)ncnc2s1` (single isomer, unassigned) [Compound 4], for which the IC50 is, setting by setting: under setting [1], 188 nM; under setting [2], 39.9 nM. Consider `FC(F)(F)Cc1cc2c(N3CCC4(CCC(NCc5ccccc5)C4)C3)ncnc2s1` (single isomer, unassigned) [Compound 6], for which the IC50 was 472 nM under setting [1] and 143 nM under setting [2]. Consider `N#CCc1ccc(C(=O)NC2CC3(CCN(c4ncnc5sc(CC(F)(F)F)cc45)C3)C2)cc1` (single isomer, unassigned) [Compound 11], for which the IC50 under setting [2] came out at 3760 nM. For the compound `N#CCc1ccc(C(=O)NC2CC3(CCN(c4ncnc5sc(CC(F)(F)F)cc45)C3)C2)cc1` (single isomer, unassigned) [Compound 12], under setting [2], the IC50 is 730 nM. Regarding `CN(C1CC2(CCN(c3ncnc4sc(CC(F)(F)F)cc34)C2)C1)S(=O)(=O)c1ccccc1` (single isomer, unassigned) [Compound 25], under setting [2], the IC50 is 510 nM. For the compound `CN(C1CC2(CCN(c3ncnc4sc(CC(F)(F)F)cc34)C2)C1)S(=O)(=O)c1ccccc1` (single isomer, unassigned) [Compound 26], under setting [2], the IC50 came out at 311 nM.

(Values after US11396517B1, “Exo-aza spiro inhibitors of menin-MLL interaction” (Janssen Pharmaceutica NV, priority 2017, dated 2022).)
